Laboratory results: PubChem BioAssay AID1845211 (Molecular Pharmacology Branch, DTP, NCI, 2023)

Test system: NCI-H322M multicellular tumor spheroids, viability (% test/control)
Assay: Anticancer human tumor NCI-H322M cell line growth inhibition;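 as to viability, T/C: spheroids exposed to compound for seven days before readout; 100% = DMSO vehicle control wells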
Details: for IC50: curve of first compound; for viability, T/C: stronger effect = lower value; active = viability on the fitted dose curve at most 10% of control; inactive = the rest
Outline: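 Complex spheroids of malignant cells with endothelial cells and mesenchymal stem cells; agents alone or combined, from near clinical Cmax (or 10 microM if unknown) down in half-log steps, 0.25% DMSO final.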

[1] = second compound 30 pM, first compound 0.0316 µM
[2] = second compound 30 pM, first compound 0.1 µM
[3] = second compound 30 pM, first compound 0.316 µM
[4] = second compound 30 pM, first compound 1 µM
[5] = second compound 30 pM, first compound 3.16 µM
[6] = second compound 30 pM, first compound 10 µM
[7] = second compound 94.9 pM, first compound 0.0316 µM
[8] = second compound 94.9 pM, first compound 0.1 µM
[9] = second compound 94.9 pM, first compound 0.316 µM
[10] = second compound 94.9 pM, first compound 1 µM
[11] = second compound 94.9 pM, first compound 3.16 µM
[12] = second compound 94.9 pM, first compound 10 µM
[13] = second compound 0.0003 µM, first compound 0.0316 µM
[14] = second compound 0.0003 µM, first compound 0.1 µM
[15] = second compound 0.0003 µM, first compound 0.316 µM
[16] = second compound 0.0003 µM, first compound 1 µM
[17] = second compound 0.0003 µM, first compound 3.16 µM
[18] = second compound 0.0003 µM, first compound 10 µM
[19] = second compound 0.000949 µM, first compound 0.0316 µM
[20] = second compound 0.000949 µM, first compound 0.1 µM
[21] = second compound 0.000949 µM, first compound 0.316 µM
[22] = second compound 0.000949 µM, first compound 1 µM
[23] = second compound 0.000949 µM, first compound 3.16 µM
[24] = second compound 0.000949 µM, first compound 10 µM
[25] = second compound 0.003 µM, first compound 0.0316 µM
[26] = second compound 0.003 µM, first compound 0.1 µM
[27] = second compound 0.003 µM, first compound 0.316 µM
[28] = second compound 0.003 µM, first compound 1 µM
[29] = second compound 0.003 µM, first compound 3.16 µM
[30] = second compound 0.003 µM, first compound 10 µM

CC(C)n1c(=O)n(C)c2cnc3cc(F)c(-c4ccc(OCCCN5CCCCC5)nc4)cc3c21 + COc1cc2c(cc1O)CCNC21CSC2c3c(OC(C)=O)c(C)c4c(c3C(COC1=O)N1C(O)C3Cc5cc(C)c(OC)c(O)c5C(C21)N3C)OCO4
inactive: viability, T/C [1] 74.8% | viability, T/C [2] 73.8% | viability, T/C [3] 74.4% | viability, T/C [4] 62.8% | viability, T/C [5] 64.2% | viability, T/C [6] 54.7% | viability, T/C [7] 77.3% | viability, T/C [8] 64.4% | viability, T/C [9] 85.3% | viability, T/C [10] 69% | viability, T/C [11] 61.4% | viability, T/C [12] 62.5% | viability, T/C [13] 58.5% | viability, T/C [14] 59.9% | viability, T/C [15] 58.3% | viability, T/C [16] 72.1% | viability, T/C [17] 68.5% | viability, T/C [18] 60% | viability, T/C [19] 63.8% | viability, T/C [20] 69.2% | viability, T/C [21] 45.3% | viability, T/C [22] 42.2% | viability, T/C [23] 46.6% | viability, T/C [24] 57.1%
276 nM: IC50 (second compound 0.000949 µM)
< 31.6 nM: IC50 (second compound 0.003 µM)
> 10000 nM: IC50 (second compound 30 pM) | IC50 (second compound 94.9 pM) | IC50 (second compound 0.0003 µM)
active: viability, T/C [25] 5.32% | viability, T/C [26] 5.15% | viability, T/C [27] 3.05% | viability, T/C [28] 3.74% | viability, T/C [29] 6.35% | viability, T/C [30] 6.1%

CC1COCCN1c1cc(-c2ccnn2C)c2ccnc(-c3ccn[nH]3)c2n1 (stereo not given) + COc1cc2c(cc1O)CCNC21CSC2c3c(OC(C)=O)c(C)c4c(c3C(COC1=O)N1C(O)C3Cc5cc(C)c(OC)c(O)c5C(C21)N3C)OCO4
< 31.6 nM: IC50 (second compound 30 pM) | IC50 (second compound 94.9 pM) | IC50 (second compound 0.0003 µM) | IC50 (second compound 0.000949 µM) | IC50 (second compound 0.003 µM)
active: viability, T/C [25] 3.51% | viability, T/C [26] 3.16% | viability, T/C [27] 3.09% | viability, T/C [28] 2.33% | viability, T/C [29] 2.23% | viability, T/C [30] 0.78%
inactive: viability, T/C [1] 50.9% | viability, T/C [2] 34.8% | viability, T/C [3] 28.1% | viability, T/C [4] 29.2% | viability, T/C [5] 31% | viability, T/C [6] 33% | viability, T/C [7] 42.3% | viability, T/C [8] 29.3% | viability, T/C [9] 27.5% | viability, T/C [10] 25.9% | viability, T/C [11] 29.2% | viability, T/C [12] 32.3% | viability, T/C [13] 28% | viability, T/C [14] 21.1% | viability, T/C [15] 21% | viability, T/C [16] 22.7% | viability, T/C [17] 24.3% | viability, T/C [18] 26.8% | viability, T/C [19] 19.4% | viability, T/C [20] 15% | viability, T/C [21] 17% | viability, T/C [22] 19.7% | viability, T/C [23] 18.8% | viability, T/C [24] 18%

COc1cc(C)[nH]c(=O)c1CN1CCc2c(Cl)cc(C(OC)C3COC3)c(Cl)c2C1=O (stereo not given) + COc1cc2c(cc1O)CCNC21CSC2c3c(OC(C)=O)c(C)c4c(c3C(COC1=O)N1C(O)C3Cc5cc(C)c(OC)c(O)c5C(C21)N3C)OCO4
> 10000 nM: IC50 (second compound 30 pM) | IC50 (second compound 94.9 pM) | IC50 (second compound 0.0003 µM) | IC50 (second compound 0.000949 µM)
inactive: viability, T/C [1] 75.3% | viability, T/C [2] 82.3% | viability, T/C [3] 80.6% | viability, T/C [4] 84% | viability, T/C [5] 84.4% | viability, T/C [6] 91.7% | viability, T/C [7] 92.6% | viability, T/C [8] 77.5% | viability, T/C [9] 83.3% | viability, T/C [10] 81% | viability, T/C [11] 81.4% | viability, T/C [12] 84.1% | viability, T/C [13] 78.7% | viability, T/C [14] 94.2% | viability, T/C [15] 79% | viability, T/C [16] 83.4% | viability, T/C [17] 97.6% | viability, T/C [18] 87.2% | viability, T/C [19] 81.8% | viability, T/C [20] 82.2% | viability, T/C [21] 82.8% | viability, T/C [22] 78.8% | viability, T/C [23] 74.7% | viability, T/C [24] 79.5%
< 31.6 nM: IC50 (second compound 0.003 µM)
active: viability, T/C [25] 6.18% | viability, T/C [26] 10.3% | viability, T/C [27] 6.44% | viability, T/C [28] 7.13% | viability, T/C [29] 4.79% | viability, T/C [30] 5.29%

COc1ccc([C@@H](O)c2cc(-c3ncnc4cc(N5CCOCC5)ccc34)c(F)cc2Cl)nn1 + COc1cc2c(cc1O)CCNC21CSC2c3c(OC(C)=O)c(C)c4c(c3C(COC1=O)N1C(O)C3Cc5cc(C)c(OC)c(O)c5C(C21)N3C)OCO4
1400 nM: IC50 (second compound 0.0003 µM)
433 nM: IC50 (second compound 0.000949 µM)
1640 nM: IC50 (second compound 94.9 pM)
< 31.6 nM: IC50 (second compound 0.003 µM)
inactive: viability, T/C [1] 101% | viability, T/C [2] 75.9% | viability, T/C [3] 79.1% | viability, T/C [4] 62.1% | viability, T/C [5] 45.3% | viability, T/C [6] 30.4% | viability, T/C [7] 96% | viability, T/C [8] 89.1% | viability, T/C [9] 82.2% | viability, T/C [10] 55.8% | viability, T/C [11] 41.5% | viability, T/C [12] 32% | viability, T/C [13] 106% | viability, T/C [14] 94.1% | viability, T/C [15] 71.1% | viability, T/C [16] 56.4% | viability, T/C [17] 38.2% | viability, T/C [18] 26.8% | viability, T/C [19] 84.2% | viability, T/C [20] 75.7% | viability, T/C [21] 58.7% | viability, T/C [22] 28.3%
2340 nM: IC50 (second compound 30 pM)
active: viability, T/C [23] 5.57% | viability, T/C [24] 2.25% | viability, T/C [25] 3.77% | viability, T/C [26] 3.3% | viability, T/C [27] 5.4% | viability, T/C [28] 1.15% | viability, T/C [29] 1.98% | viability, T/C [30] 2.69%

O=C(c1cc(Cc2n[nH]c(=O)c3ccccc23)ccc1F)N1CCN(C(=O)C2CC2)CC1 + Cn1nnc2c(C(N)=O)ncn2c1=O
inactive: viability, T/C (second compound 1 µM, first compound 0.0949 µM) 84.3% | viability, T/C (second compound 1 µM, first compound 0.3 µM) 93.5% | viability, T/C (second compound 1 µM, first compound 0.949 µM) 88.7% | viability, T/C (second compound 1 µM, first compound 3 µM) 92.5% | viability, T/C (second compound 1 µM, first compound 9.49 µM) 78% | viability, T/C (second compound 1 µM, first compound 30 µM) 94% | viability, T/C (second compound 3.16 µM, first compound 0.0949 µM) 86.1% | viability, T/C (second compound 3.16 µM, first compound 0.3 µM) 81.5% | viability, T/C (second compound 3.16 µM, first compound 0.949 µM) 80.1% | viability, T/C (second compound 3.16 µM, first compound 3 µM) 79.9% | viability, T/C (second compound 3.16 µM, first compound 9.49 µM) 88.2% | viability, T/C (second compound 3.16 µM, first compound 30 µM) 84.6% | viability, T/C (second compound 10 µM, first compound 0.0949 µM) 85.4% | viability, T/C (second compound 10 µM, first compound 0.3 µM) 90.7% | viability, T/C (second compound 10 µM, first compound 0.949 µM) 85.7% | viability, T/C (second compound 10 µM, first compound 3 µM) 78.1% | viability, T/C (second compound 10 µM, first compound 9.49 µM) 80% | viability, T/C (second compound 10 µM, first compound 30 µM) 73.5% | viability, T/C (second compound 31.6 µM, first compound 0.0949 µM) 105% | viability, T/C (second compound 31.6 µM, first compound 0.3 µM) 87.5% | viability, T/C (second compound 31.6 µM, first compound 0.949 µM) 86.1% | viability, T/C (second compound 31.6 µM, first compound 3 µM) 93.1% | viability, T/C (second compound 31.6 µM, first compound 9.49 µM) 84.5% | viability, T/C (second compound 31.6 µM, first compound 30 µM) 93.6% | viability, T/C (second compound 100 µM, first compound 0.0949 µM) 76.8% | viability, T/C (second compound 100 µM, first compound 0.3 µM) 82.4% | viability, T/C (second compound 100 µM, first compound 0.949 µM) 96.4% | viability, T/C (second compound 100 µM, first compound 3 µM) 86.8% | viability, T/C (second compound 100 µM, first compound 9.49 µM) 75.2% | viability, T/C (second compound 100 µM, first compound 30 µM) 71.4%
> 30000 nM: IC50 (second compound 1 µM) | IC50 (second compound 3.16 µM) | IC50 (second compound 10 µM) | IC50 (second compound 31.6 µM) | IC50 (second compound 100 µM)
